Assay results: ChEMBL document CHEMBL1201862, “PubChem BioAssay data set” (2004)
Activity calls are given as the source filed them.

What was measured:
[1] = target: T1, Heat shock factor protein 1 (Mus musculus, UniProt P38532); assay: inhibition of MG132-induced HSE-luciferase signal, confirmation, cell-based, NIH3T3, luminescence, dose retest (AID 2382); type: functional;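 also: NIH3T3 fibroblasts with HSF1-driven luciferase reporter stressed by proteasome inhibitor MG132; luminescence from HSF1-driven luciferase expression after 8 hours of MG132 stress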
T1 sequence (P38532 whole entry): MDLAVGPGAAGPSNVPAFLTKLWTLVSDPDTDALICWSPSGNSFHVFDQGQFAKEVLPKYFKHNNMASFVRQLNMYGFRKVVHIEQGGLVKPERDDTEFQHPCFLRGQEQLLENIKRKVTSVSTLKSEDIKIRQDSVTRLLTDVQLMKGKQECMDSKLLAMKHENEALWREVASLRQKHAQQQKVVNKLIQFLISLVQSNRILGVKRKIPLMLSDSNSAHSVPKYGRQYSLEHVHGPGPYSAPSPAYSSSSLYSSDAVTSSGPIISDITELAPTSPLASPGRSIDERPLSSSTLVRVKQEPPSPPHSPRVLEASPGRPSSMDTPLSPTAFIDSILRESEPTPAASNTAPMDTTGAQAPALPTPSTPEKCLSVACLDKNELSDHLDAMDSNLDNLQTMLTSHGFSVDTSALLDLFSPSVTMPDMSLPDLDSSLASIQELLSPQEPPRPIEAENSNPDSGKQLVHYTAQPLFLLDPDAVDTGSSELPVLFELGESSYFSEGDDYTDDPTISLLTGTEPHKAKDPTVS

[2] = inhibitors of intracellular T. cruzi replication, confirmation, NIH3T3 host cells, beta-gal luminescence (AID 2044); type: functional, cell-based;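 also: intracellular parasites grown in NIH/3T3 mouse fibroblasts as host cells; luminescent beta-galactosidase reporter signal from transgenic T. cruzi replicating inside host cells; inhibitors lower the luminescence signal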
[3] = cytotoxicity toward NIH3T3 fibroblasts, dose response, counter-screen, cell-based, ATP luminescence, mouse fibroblasts (AID 2010); type: functional;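 also: cells exposed to compound for about 90 hours before reading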
[4] = target: T2, Replicative DNA helicase DnaB (Mycobacterium tuberculosis, UniProt P9WMR3); assay: DnaB intein splicing inhibitors, dose response, biochemical, cell-free fluorescence (AID 449749); type: functional
T2 sequence (P9WMR3 whole entry): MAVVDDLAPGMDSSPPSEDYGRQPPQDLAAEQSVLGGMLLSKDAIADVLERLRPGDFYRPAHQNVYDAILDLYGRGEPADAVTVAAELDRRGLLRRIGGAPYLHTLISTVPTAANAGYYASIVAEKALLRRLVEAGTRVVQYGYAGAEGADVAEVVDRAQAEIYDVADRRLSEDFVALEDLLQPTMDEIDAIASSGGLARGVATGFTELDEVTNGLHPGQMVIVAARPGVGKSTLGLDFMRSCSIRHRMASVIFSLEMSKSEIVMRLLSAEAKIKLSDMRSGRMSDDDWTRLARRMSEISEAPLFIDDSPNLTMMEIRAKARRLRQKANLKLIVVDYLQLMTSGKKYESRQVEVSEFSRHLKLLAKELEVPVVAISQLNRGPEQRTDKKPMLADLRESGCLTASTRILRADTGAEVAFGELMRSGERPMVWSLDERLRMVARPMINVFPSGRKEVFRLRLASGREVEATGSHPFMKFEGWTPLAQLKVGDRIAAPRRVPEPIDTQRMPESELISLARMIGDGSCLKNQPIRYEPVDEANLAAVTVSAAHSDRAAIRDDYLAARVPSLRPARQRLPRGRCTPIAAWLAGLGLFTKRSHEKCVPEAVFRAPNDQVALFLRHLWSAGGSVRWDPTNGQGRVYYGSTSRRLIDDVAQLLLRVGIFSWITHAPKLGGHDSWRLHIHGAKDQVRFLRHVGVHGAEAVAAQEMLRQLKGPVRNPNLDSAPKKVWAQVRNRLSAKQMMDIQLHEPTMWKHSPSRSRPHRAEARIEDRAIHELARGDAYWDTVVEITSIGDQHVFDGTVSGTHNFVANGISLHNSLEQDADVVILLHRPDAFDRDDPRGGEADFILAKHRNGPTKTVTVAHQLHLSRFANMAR

Protein RecA = target: T3, Protein RecA (Mycobacterium tuberculosis, UniProt P9WHJ3); assay: Fluorescence Cell-Free Homogeneous Dose Retest to Identify Inhibitors of RecA-Intein Splicing Activity. [Related pubchem assays (depositor defined):AID2097, AID2223, AID489010, AID492950]; type: functional
T3 sequence (P9WHJ3 whole entry): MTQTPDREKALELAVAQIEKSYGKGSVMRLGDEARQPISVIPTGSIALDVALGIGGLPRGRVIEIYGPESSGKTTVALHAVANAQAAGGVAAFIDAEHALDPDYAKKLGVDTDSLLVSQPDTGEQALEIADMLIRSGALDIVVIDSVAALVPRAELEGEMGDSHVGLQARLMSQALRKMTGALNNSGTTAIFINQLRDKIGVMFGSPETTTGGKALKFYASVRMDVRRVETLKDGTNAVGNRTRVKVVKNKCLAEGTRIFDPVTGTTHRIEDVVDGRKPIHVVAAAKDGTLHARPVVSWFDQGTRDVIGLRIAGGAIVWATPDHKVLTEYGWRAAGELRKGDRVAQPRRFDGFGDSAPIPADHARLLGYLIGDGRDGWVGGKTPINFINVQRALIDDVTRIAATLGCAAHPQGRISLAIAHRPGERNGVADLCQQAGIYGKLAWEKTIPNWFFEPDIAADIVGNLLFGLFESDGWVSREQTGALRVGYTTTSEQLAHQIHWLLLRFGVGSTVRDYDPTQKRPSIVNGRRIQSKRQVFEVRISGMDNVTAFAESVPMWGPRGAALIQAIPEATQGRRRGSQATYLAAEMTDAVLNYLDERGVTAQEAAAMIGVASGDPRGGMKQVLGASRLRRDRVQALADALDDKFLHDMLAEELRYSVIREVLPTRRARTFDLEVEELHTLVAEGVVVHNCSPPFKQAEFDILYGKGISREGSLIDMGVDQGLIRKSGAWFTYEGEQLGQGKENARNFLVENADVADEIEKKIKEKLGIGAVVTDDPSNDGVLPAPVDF

[5] = target: T4, Calpain-2 catalytic subunit (Sus scrofa, UniProt P43367); assay: pig calpain II inhibitor potency, dose response, biochemical, fluorogenic peptide substrate (AID 1420); type: functional
T4 sequence (P43367 whole entry): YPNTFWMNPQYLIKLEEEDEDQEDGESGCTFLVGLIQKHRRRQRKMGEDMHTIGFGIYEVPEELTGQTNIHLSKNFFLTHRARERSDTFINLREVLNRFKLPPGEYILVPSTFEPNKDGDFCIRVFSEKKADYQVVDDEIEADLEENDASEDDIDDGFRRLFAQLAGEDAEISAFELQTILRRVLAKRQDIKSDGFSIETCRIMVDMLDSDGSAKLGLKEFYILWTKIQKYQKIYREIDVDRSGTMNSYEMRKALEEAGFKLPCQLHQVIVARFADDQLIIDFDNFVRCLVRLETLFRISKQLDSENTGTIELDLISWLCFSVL

Cytochrome P450 1A2 = target: T5, Cytochrome P450 1A2 (Homo sapiens, UniProt P05177);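 also: PubChem cytochrome P450 panel assay, CYP1A2 panel member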
T5 sequence (P05177 whole entry): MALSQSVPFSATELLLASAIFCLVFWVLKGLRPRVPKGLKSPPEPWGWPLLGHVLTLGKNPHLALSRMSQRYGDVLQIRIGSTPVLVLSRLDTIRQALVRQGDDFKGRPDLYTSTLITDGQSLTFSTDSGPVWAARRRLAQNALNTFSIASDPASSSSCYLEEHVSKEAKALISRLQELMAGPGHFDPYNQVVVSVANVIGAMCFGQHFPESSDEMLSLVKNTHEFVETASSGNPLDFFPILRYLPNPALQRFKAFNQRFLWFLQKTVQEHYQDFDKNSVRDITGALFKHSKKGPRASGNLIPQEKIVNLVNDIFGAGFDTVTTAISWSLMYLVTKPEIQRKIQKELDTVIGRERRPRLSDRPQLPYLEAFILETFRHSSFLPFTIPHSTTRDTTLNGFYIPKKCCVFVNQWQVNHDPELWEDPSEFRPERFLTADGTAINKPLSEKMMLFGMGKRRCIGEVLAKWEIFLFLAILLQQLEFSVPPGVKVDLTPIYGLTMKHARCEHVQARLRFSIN

Cytochrome P450 3A4 = Cytochrome P450 3A4 (Homo sapiens, UniProt P08684);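 also: CYP3A4 tested as one member of a cytochrome P450 panel screen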
Chain of Cytochrome P450 3A4 (P08684 whole entry): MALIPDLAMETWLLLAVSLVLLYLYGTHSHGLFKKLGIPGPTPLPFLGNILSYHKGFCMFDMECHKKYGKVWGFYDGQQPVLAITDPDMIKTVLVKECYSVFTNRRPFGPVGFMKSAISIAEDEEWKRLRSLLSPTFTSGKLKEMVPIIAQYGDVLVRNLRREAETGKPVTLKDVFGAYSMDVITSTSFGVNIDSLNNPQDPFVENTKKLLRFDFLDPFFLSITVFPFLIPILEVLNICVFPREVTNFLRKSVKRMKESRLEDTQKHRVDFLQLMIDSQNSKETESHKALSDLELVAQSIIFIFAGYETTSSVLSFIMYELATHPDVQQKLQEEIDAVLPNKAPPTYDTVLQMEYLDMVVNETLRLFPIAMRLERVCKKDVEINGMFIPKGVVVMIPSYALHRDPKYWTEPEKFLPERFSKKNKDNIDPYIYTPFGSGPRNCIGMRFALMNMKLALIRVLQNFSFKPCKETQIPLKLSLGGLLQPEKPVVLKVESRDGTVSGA

[6] = microbe, parasite or virus in culture; type: functional; conditions: Mycobacterium tuberculosis
[7] = target: T1, Heat shock factor protein 1; assay: HSF1 potentiators in luciferase reporter cells, confirmation, cell-based, NIH3T3, luminescence, dose retest (AID 435004); type: functional;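 also: stress induced by proteasome inhibitor MG132 added 30 min after compound; luciferase reporter driven by HSF1 response element in NIH3T3 cells; actives raise luminescence as potentiators of the MG132 stress response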
cells = type: functional
[8] = Luminescence Cell-Based Dose Retest to Confirm Inhibitors of Cancer Stem Cells. [Related pubchem assays (depositor defined):AID2717, AID2721]; type: functional; conditions: Homo sapiens
INS1 = assay: beta cell apoptosis inhibitors, cytokine rescue, dose response, luminescence, retest (AID 449756); type: functional, cell-based; conditions: Rattus norvegicus;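 also: cell death triggered by IL-1 beta plus TNF-alpha plus IFN-gamma mixture; protective hits raise ATP signal compared with cytokine alone wells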

SMILES: CC(C)(C)OC(=O)C1C(=O)CC(C)(O)C(C(=O)OC(C)(C)C)C1c1cccnc1 (stereo not given)
- EC50 [1]: > 195 µM (not active)

SMILES: Cc1ccc2c(N)c(C(=O)N(c3ccccc3)c3ccccc3)sc2n1
- EC50 [1]: > 195 µM (not active)
- EC50 [2]: 1.3 µM (active)
- EC50 [3]: > 60 µM (not active)

SMILES: COc1ccc(N/N=C(\C#N)C(=N)SCc2ccccc2)cc1
- AC50 [4]: 3.6 µM (active)
- EC50 (Protein RecA): 8.67 µM (active)

SMILES: CCOc1ccc(NC(=O)CN(C)C(=O)c2ccc(N3CCCC3)c([N+](=O)[O-])c2)cc1OCC
- EC50 [1]: > 195 µM (not active)

SMILES: Cc1cccc(NC(=O)CSc2nnc(CNC(=O)c3cccs3)o2)c1C
- IC50 [5]: 7.44 µM (not active)

SMILES: C#CCSc1nnc(-c2sc3ccccc3c2Cl)o1
- IC50 [5]: > 50 µM (not active)
- AC50 (Cytochrome P450 1A2): 0.126 µM (inconclusive)
- AC50 (Cytochrome P450 3A4): 8.91 µM (inconclusive)

SMILES: COC(=O)Nc1sccc1C(=O)Nc1sccc1C(=O)OC
- EC50 [1]: > 195 µM (not active)

SMILES: CSC(=N/c1cc(Cl)ccc1Cl)/C(C#N)=C(/O)c1ccco1
- CC50 [6]: 37.1 µM (active)
- EC50 [7]: 11.2 µM (active)
- IC50 (cells): 7.46 µM (active)
- AC50 [4]: 2.51 µM (active)
- EC50 (Protein RecA): 0.912 µM (active)

SMILES: S=C(Nc1ccccc1Oc1ccccc1)Nc1cccc(Cl)c1Cl
- IC50 [5]: 12.7 µM (not active)

SMILES: CC(=C/C(=O)O)/C(=C/c1ccccc1)C(=O)O
- IC50 [5]: < 0.4 µM (not active)

SMILES: CCCc1n[nH]c2c1C(c1ccc(O)cc1OCC)C(C#N)=C(N)O2 (stereo not given)
- AC50 [4]: 40.3 µM (active)
- EC50 (Protein RecA): 4.6 µM (active)

SMILES: CC1(C)C=C(c2ccc(C=O)s2)CC(C)(C)N1C=O
- EC50 [1]: > 195 µM (not active)

SMILES: CC(O)c1nc2ccccc2n1Cc1nnc(-c2ccc(Cl)cc2)o1 (stereo not given)
- EC50 [1]: > 195 µM (not active)

SMILES: O=c1ccc2ccc(Oc3ccc(Cl)cc3[N+](=O)[O-])cc2o1
- IC50 [5]: < 0.4 µM (not active)

SMILES: Cc1ccc(NS(=O)(=O)c2cc(C(=O)NCCSC3CCCCC3)ccc2C)cc1
- IC50 [5]: > 50 µM (not active)

SMILES: CN(Cc1ccc(Cl)cc1)C(=O)CCl
- AC50 [4]: 21.8 µM (active)
- EC50 (Protein RecA): 2.61 µM (active)

SMILES: Oc1ccc(Nc2nc(-c3ccc4ccccc4c3)cs2)cc1
- CC50 [6]: 17.1 µM (active)
- AC50 [8]: 5.31 µM (active)
- AC50 [4]: 67.6 µM (active)
- EC50 (Protein RecA): 7.3 µM (active)
- AC50 (INS1): 16.6 µM (active)

SMILES: CC(=O)Oc1cc2c(cc1Cl)C1(CC(c3ccccc3Cl)O2)CC(C)(C)N=C(S)N1 (stereo not given)
- AC50 [4]: 4.22 µM (active)
- EC50 (Protein RecA): 14.1 µM (active)

SMILES: C/C(CC(=O)Nc1cc(C)ccn1)=N\NC(=O)c1cccc(F)c1
- AC50 [4]: 18.7 µM (active)
- EC50 (Protein RecA): 8.06 µM (active)

SMILES: S=C(c1ccc(N2CCCC2)cc1)N1CCCCC1
- IC50 [5]: 12.1 µM (active)

SMILES: COc1ccc(-c2noc(N3CCC(C(=O)NCCCN4CC(C)CC(C)C4)CC3)n2)cc1 (stereo not given)
- EC50 [1]: > 195 µM (not active)

SMILES: CC(=O)N1CC2(c3ccccc3)CN(C(C)=O)CC(c3ccccc3)(C1)C2=O
- AC50 [4]: > 380 µM (inactive)
- EC50 (Protein RecA): > 380 µM (inactive)

SMILES: COC(=O)c1c(C)oc2ccc(N(C(=O)c3ccncc3)S(=O)(=O)c3ccc(C)cc3C)cc12
- AC50 [4]: 2.27 µM (active)
- EC50 (Protein RecA): 10.9 µM (active)
- AC50 (INS1): 3.85 µM (active)

SMILES: CC(C)CC(=O)NC(NC(=O)CC(C)C)c1cccc([N+](=O)[O-])c1
- EC50 [1]: > 195 µM (not active)

SMILES: O=C(NCCc1ccccn1)c1ccc(OC(F)F)cc1
- IC50 [5]: < 0.4 µM (not active)

SMILES: Cc1[nH]n(-c2ccccc2)c(=O)c1N=Nc1ccc2c(c1)OCO2
- EC50 [1]: > 195 µM (not active)

SMILES: Cc1cccc(NC(=O)c2cc3c(=O)n4ccccc4nc3n(CC(C)C)c2=N)c1
- IC50 [5]: > 50 µM (not active)

SMILES: Fc1ccc(Cc2nnc(-c3cccs3)o2)cc1
- EC50 [1]: > 195 µM (not active)

SMILES: CCOC(=O)Cn1c(=O)cc(C)c2cccc(C)c21
- IC50 [5]: < 0.4 µM (not active)

SMILES: CCOC(=O)c1c(C)[nH]c(C2=NN=C(Nc3cccc(Cl)c3)SC2)c1C
- EC50 [1]: 25.3 µM (active)
